Measurements taken from patent US20260217711A1, “TRIAZOLOPYRIDINYL ETHER LINKED COMPOUNDS AS KINASE INHIBITORS” (Bristol-Myers Squibb Company, priority 2023, published 2026).

These compounds were tested on MLKL phosphorylation (pMLKL) in HT29-L23 cells (assay: MLKL Phosphorylation High-Content Assay). Conditions: necroptosis induced with human TNFα, SMAC mimetic and Z-VAD, 6 h, read-out: LE pMLKL HC IC50.
Type: cell-based
Procedure, shortened: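 HT29-L23 cells incubated 6 h at 37° C before detection of phospho-MLKL by immunostaining with anti-phospho-MLKL antibody (1:1000 in PBS/0.1% BSA, overnight at 4° C). Readout by high-content imaging with compartmental image analysis.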

Compared with `Nc1nc2cc(-c3ccc(Cl)c(OCCC(F)C(O)c4ccc(F)cc4)c3F)ccn2n1` (single isomer, unassigned) [Example 100, 4-(3-(2-amino-[1,2,4]triazolo[1,5-a]pyridin-7-yl)-6-chloro-2-fluorophenoxy)-2-fluoro-1-(4-fluorophenyl)butan-1-ol], `Nc1nc2cc(-c3ccc(F)c(OCCC(F)C(O)c4ccc(F)cc4)c3F)ccn2n1` (single isomer, unassigned) [Example 102, 4-(3-(2-amino-[1,2,4]triazolo[1,5-a]pyridin-7-yl)-2,6-difluorophenoxy)-2-fluoro-1-(4-fluorophenyl)butan-1-ol] is 2-fold lower in IC50: 6 nM for the first, 3 nM for the second. The second is the more potent here.

First: Nc1nc2cc(-c3ccc(Cl)c(OCCC(F)C(O)c4ccc(F)cc4)c3F)ccn2n1 (single isomer, unassigned) [Example 101, 4-(3-(2-amino-[1,2,4]triazolo[1,5-a]pyridin-7-yl)-6-chloro-2-fluorophenoxy)-2-fluoro-1-(4-fluorophenyl)butan-1-ol]
Second: Nc1nc2cc(-c3ccc(F)c(OCCC(F)C(O)c4ccc(F)cc4)c3F)ccn2n1 (single isomer, unassigned) [Example 103, 4-(3-(2-amino-[1,2,4]triazolo-[1,5-a]pyridin-7-yl)-2,6-difluorophenoxy)-2-fluoro-1-(4-fluorophenyl)butan-1-ol]
The IC50 of the first is 20-fold higher: 30 nM for the first, 1.5 nM for the second. The second is the more potent here.

`Nc1nc2cc(-c3ccc(F)c(OCCC(F)C(O)c4ccc(F)cc4)c3F)ccn2n1` (single isomer, unassigned) [Example 104, 4-(3-(2-amino-[1,2,4]triazolo-[1,5-a]pyridin-7-yl)-2,6-difluorophenoxy)-2-fluoro-1-(4-fluorophenyl)butan-1-ol] and `Cc1ccc(-c2ccn3nc(N)nc3c2)c(F)c1OCCC(F)C(O)c1ccc(F)cc1` (single isomer, unassigned) [Example 106, 4-(3-(2-amino-[1,2,4]triazolo[1,5-a]pyridin-7-yl)-2-fluoro-6-methylphenoxy)-2-fluoro-1-(4-fluorophenyl)butan-1-ol] are within 1.5-fold of each other in IC50: 2.8 nM for the first, 3 nM for the second.

Compared with `Nc1nc2cc(-c3ccc(F)c(OCCC(F)C(O)c4ccc(F)cc4)c3F)ccn2n1` (single isomer, unassigned) [Example 105, 4-(3-(2-amino-[1,2,4]triazolo-[1,5-a]pyridin-7-yl)-2,6-difluorophenoxy)-2-fluoro-1-(4-fluorophenyl)butan-1-ol], `Cc1ccc(-c2ccn3nc(N)nc3c2)c(F)c1OCCC(F)C(O)c1ccc(F)cc1` (single isomer, unassigned) [Example 107, 4-(3-(2-amino-[1,2,4]triazolo[1,5-a]pyridin-7-yl)-2-fluoro-6-methylphenoxy)-2-fluoro-1-(4-fluorophenyl)butan-1-ol] is 10-fold lower in IC50: 12 nM for the first, 1.2 nM for the second.

Compared with `Cc1ccc(-c2ccn3nc(N)nc3c2)c(F)c1OCCC(F)C(O)c1ccc(F)cc1` (single isomer, unassigned) [Example 108, 4-(3-(2-amino-[1,2,4]triazolo[1,5-a]pyridin-7-yl)-2-fluoro-6-methylphenoxy)-2-fluoro-1-(4-fluorophenyl)butan-1-ol], `Nc1nc2cc(-c3ccc(C(F)(F)F)c(OCCC(F)C(O)c4ccc(F)cc4)c3F)ccn2n1` (single isomer, unassigned) [Example 110, 4-(3-(2-amino-[1,2,4]triazolo[1,5-a]pyridin-7-yl)-2-fluoro-6-(trifluoromethyl)phenoxy)-2-fluoro-1-(4-fluorophenyl)butan-1-ol] is 150-fold higher in IC50: 2.4 nM for the first, 360 nM for the second.

Compared with `Cc1ccc(-c2ccn3nc(N)nc3c2)c(F)c1OCCC(F)C(O)c1ccc(F)cc1` (single isomer, unassigned) [Example 109, 4-(3-(2-amino-[1,2,4]triazolo[1,5-a]pyridin-7-yl)-2-fluoro-6-methylphenoxy)-2-fluoro-1-(4-fluorophenyl)butan-1-ol], `Nc1nc2cc(-c3ccc(C(F)(F)F)c(OCCC(F)C(O)c4ccc(F)cc4)c3F)ccn2n1` (single isomer, unassigned) [Example 111, 4-(3-(2-amino-[1,2,4]triazolo[1,5-a]pyridin-7-yl)-2-fluoro-6-(trifluoromethyl)phenoxy)-2-fluoro-1-(4-fluorophenyl)butan-1-ol] is 290-fold higher in IC50: 0.1 nM for the first, 29 nM for the second. The first is the more potent here.

First: Nc1nc2cc(-c3ccc(C(F)(F)F)c(OCCC(F)C(O)c4ccc(F)cc4)c3F)ccn2n1 (single isomer, unassigned) [Example 112, 4-(3-(2-amino-[1,2,4]triazolo[1,5-a]pyridin-7-yl)-2-fluoro-6-(trifluoromethyl)phenoxy)-2-fluoro-1-(4-fluorophenyl)butan-1-ol]
Second: Nc1nc2cc(-c3cc(F)c(F)c(OCCC(F)C(O)c4ccc(F)cc4)c3)ccn2n1 (single isomer, unassigned) [Example 116, 4-(5-(2-amino-[1,2,4]triazolo[1,5-a]pyridin-7-yl)-2,3-difluorophenoxy)-2-fluoro-1-(4-fluorophenyl)butan-1-ol]
The IC50 of the first is 13-fold higher: 730 nM for the first, 55 nM for the second. The second is the more potent here.

Compared with `Nc1nc2cc(-c3ccc(C(F)(F)F)c(OCCC(F)C(O)c4ccc(F)cc4)c3F)ccn2n1` (single isomer, unassigned) [Example 113, 4-(3-(2-amino-[1,2,4]triazolo[1,5-a]pyridin-7-yl)-2-fluoro-6-(trifluoromethyl)phenoxy)-2-fluoro-1-(4-fluorophenyl)butan-1-ol], `Nc1nc2cc(-c3cc(F)c(F)c(OCCC(F)C(O)c4ccc(F)cc4)c3)ccn2n1` (single isomer, unassigned) [Example 117, 4-(5-(2-amino-[1,2,4]triazolo[1,5-a]pyridin-7-yl)-2,3-difluorophenoxy)-2-fluoro-1-(4-fluorophenyl)butan-1-ol] is 2.6-fold higher in IC50: 220 nM for the first, 580 nM for the second. The first is the more potent here.

Compared with `Cc1ccc(-c2ccn3nc(N)nc3c2)c(F)c1OCCC(F)C(C)(O)c1ccc(F)cc1` (single isomer, unassigned) [Example 114, 5-(3-(2-amino-[1,2,4]triazolo[1,5-a]pyridin-7-yl)-2-fluoro-6-methylphenoxy)-3-fluoro-2-(4-fluorophenyl)pentan-2-ol], `Cc1ccc(-c2ccn3nc(N)nc3c2)c(F)c1OCCC(F)C(F)(F)c1ccc(F)cc1` (single isomer, unassigned) [Example 120, 7-(2-fluoro-4-methyl-3-(3,4,4-trifluoro-4-(4-fluorophenyl)butoxy)phenyl)-[1,2,4]triazolo[1,5-a]pyridin-2-amine] is 96-fold higher in IC50: 0.1 nM for the first, 9.6 nM for the second.

First: Cc1ccc(-c2ccn3nc(N)nc3c2)c(F)c1OCCC(F)C(C)(O)c1ccc(F)cc1 (single isomer, unassigned) [Example 115, 5-(3-(2-amino-[1,2,4]triazolo[1,5-a]pyridin-7-yl)-2-fluoro-6-methylphenoxy)-3-fluoro-2-(4-fluorophenyl)pentan-2-ol]
Second: Cc1ccc(-c2ccn3nc(N)nc3c2)c(F)c1OCCC(F)C(F)(F)c1ccc(F)cc1 (single isomer, unassigned) [Example 121, 7-(2-fluoro-4-methyl-3-(3,4,4-trifluoro-4-(4-fluorophenyl)butoxy)phenyl)-[1,2,4]triazolo[1,5-a]pyridin-2-amine]
The IC50 of the first is 34-fold lower: 2.6 nM for the first, 89 nM for the second.

Going from `Nc1nc2cc(-c3cc(F)c(F)c(OCCC(F)C(O)c4ccc(F)cc4)c3)ccn2n1` (single isomer, unassigned) [Example 118, 4-(5-(2-amino-[1,2,4]triazolo[1,5-a]pyridin-7-yl)-2,3-difluorophenoxy)-2-fluoro-1-(4-fluorophenyl)butan-1-ol] to `CC(O)(c1cccc(F)c1)C(F)(F)CCOc1c(F)ccc(-c2ccn3nc(N)nc3c2)c1F` (single isomer, unassigned) [Example 122, 5-(3-(2-amino-[1,2,4]triazolo[1,5-a]pyridin-7-yl)-2,6-difluorophenoxy)-3,3-difluoro-2-(3-fluorophenyl)pentan-2-ol], the IC50 falls from 1040 nM to 130 nM (8-fold). The second is the more potent here.

Going from `Nc1nc2cc(-c3cc(F)c(F)c(OCCC(F)C(O)c4ccc(F)cc4)c3)ccn2n1` (single isomer, unassigned) [Example 119, 4-(5-(2-amino-[1,2,4]triazolo[1,5-a]pyridin-7-yl)-2,3-difluorophenoxy)-2-fluoro-1-(4-fluorophenyl)butan-1-ol] to `CC(O)(c1cccc(F)c1)C(F)(F)CCOc1c(F)ccc(-c2ccn3nc(N)nc3c2)c1F` (single isomer, unassigned) [Example 123, 5-(3-(2-amino-[1,2,4]triazolo[1,5-a]pyridin-7-yl)-2,6-difluorophenoxy)-3,3-difluoro-2-(3-fluorophenyl)pentan-2-ol], the IC50 falls from 580 nM to 0.9 nM (640-fold). The second is the more potent here.

Going from `CC(O)(c1ccccc1F)C(F)(F)CCOc1c(F)ccc(-c2ccn3nc(N)nc3c2)c1F` (single isomer, unassigned) [Example 124, 5-(3-(2-amino-[1,2,4]triazolo[1,5-a]pyridin-7-yl)-2,6-difluorophenoxy)-3,3-difluoro-2-(2-fluorophenyl)pentan-2-ol] to `CC(CC(F)(F)C(C)(O)c1ccc(F)cc1)Oc1c(F)ccc(-c2ccn3nc(N)nc3c2)c1F` (single isomer, unassigned) [Example 126, 5-(3-(2-amino-[1,2,4]triazolo[1,5-a]pyridin-7-yl)-2,6-difluorophenoxy)-3,3-difluoro-2-(4-fluorophenyl)hexan-2-ol], the IC50 rises from 160 nM to 370 nM (2.3-fold). The first is the more potent here.

Compared with `CC(O)(c1ccccc1F)C(F)(F)CCOc1c(F)ccc(-c2ccn3nc(N)nc3c2)c1F` (single isomer, unassigned) [Example 125, 5-(3-(2-amino-[1,2,4]triazolo[1,5-a]pyridin-7-yl)-2,6-difluorophenoxy)-3,3-difluoro-2-(2-fluorophenyl)pentan-2-ol], `CC(CC(F)(F)C(C)(O)c1ccc(F)cc1)Oc1c(F)ccc(-c2ccn3nc(N)nc3c2)c1F` (single isomer, unassigned) [Example 127, 5-(3-(2-amino-[1,2,4]triazolo[1,5-a]pyridin-7-yl)-2,6-difluorophenoxy)-3,3-difluoro-2-(4-fluorophenyl)hexan-2-ol] is 1.8-fold higher in IC50: 0.6 nM for the first, 1.1 nM for the second.

In the case of `CC(CC(F)(F)C(C)(O)c1ccc(F)cc1)Oc1c(F)ccc(-c2ccn3nc(N)nc3c2)c1F` (single isomer, unassigned) [Example 128, 5-(3-(2-amino-[1,2,4]triazolo[1,5-a]pyridin-7-yl)-2,6-difluorophenoxy)-3,3-difluoro-2-(4-fluorophenyl)hexan-2-ol], the IC50 is reported as 170 nM.
